From US20220089541A1, “Compounds for the Treatment of Kinase-Dependent Disorders” (Exelixis, Inc., priority 2019, published 2022) come the findings set out here.

What is called IC50 is the point on the concentration scale where inhibition reaches its midpoint. The term half-life denotes the time needed for the level to fall by half in the phase considered. A lower half-life goes with fast loss.

The target in one data set is T1, Mer (Homo sapiens, UniProt Q12866).
T1 construct: host or cells: 293A cells (Thermo Fisher #R70507)
T1 sequence (Q12866 21-999): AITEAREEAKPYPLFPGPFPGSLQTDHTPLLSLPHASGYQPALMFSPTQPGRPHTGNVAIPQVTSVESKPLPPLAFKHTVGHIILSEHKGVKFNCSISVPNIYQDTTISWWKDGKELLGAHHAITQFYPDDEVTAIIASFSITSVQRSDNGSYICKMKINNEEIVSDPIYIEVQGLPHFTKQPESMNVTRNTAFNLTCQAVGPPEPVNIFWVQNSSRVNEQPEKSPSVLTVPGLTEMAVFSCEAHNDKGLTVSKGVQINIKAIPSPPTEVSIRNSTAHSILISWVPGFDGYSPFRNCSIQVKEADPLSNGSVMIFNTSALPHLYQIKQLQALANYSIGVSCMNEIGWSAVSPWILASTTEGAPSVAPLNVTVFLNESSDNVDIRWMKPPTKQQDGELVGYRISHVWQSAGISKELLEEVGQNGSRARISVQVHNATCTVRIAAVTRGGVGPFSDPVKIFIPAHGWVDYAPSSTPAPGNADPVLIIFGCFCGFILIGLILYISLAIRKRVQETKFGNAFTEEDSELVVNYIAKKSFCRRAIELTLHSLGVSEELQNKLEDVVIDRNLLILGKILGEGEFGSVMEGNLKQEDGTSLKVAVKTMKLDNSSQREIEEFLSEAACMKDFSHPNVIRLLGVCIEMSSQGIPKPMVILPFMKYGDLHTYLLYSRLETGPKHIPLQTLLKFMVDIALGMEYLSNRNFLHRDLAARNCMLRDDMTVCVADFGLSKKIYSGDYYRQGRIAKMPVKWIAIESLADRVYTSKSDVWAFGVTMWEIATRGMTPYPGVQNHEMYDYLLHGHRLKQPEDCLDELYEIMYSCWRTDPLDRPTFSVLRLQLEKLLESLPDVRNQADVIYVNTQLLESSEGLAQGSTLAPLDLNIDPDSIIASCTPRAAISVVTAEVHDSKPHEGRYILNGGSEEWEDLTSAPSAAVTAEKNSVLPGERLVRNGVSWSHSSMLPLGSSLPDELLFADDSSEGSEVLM
Briefly: Mer autophosphorylation ELISA in transient transfected 293A cells. Format: cell-based. The conditions noted are these: 293A cells transfected with MERTK DNA, phospho-Mer ELISA, 1 h compound incubation. How it is done:
Example D: Mer Autophosphorylation ELISA in Transient Transfected 293A Cells
293A cells (Thermo Fisher #R70507) were seeded at 1.5×10^6 cells/well onto 100 mm dish (Greiner #664169), in DMEM (Thermo Fisher #11995-040) containing 10% FBS (Thermo Fisher #26140-079), 1% MEM NEAA (Thermo Fisher #11140-050), 1% GlutaMax (Thermo Fisher #35050-061), and 1% Penicillin Streptomycin (Thermo Fisher #15140-122). 293A cells were incubated at 37° C., 5% CO2 for 24 h and then transfected with 6 μg MERTK DNA (Genecopoeia #EX-Z8208-M02) using TransIT LT1 transfection reagent (Mirus-Bio #MIR2305). After 24 h incubation, the transfected 293A cells were seeded at 1×10^5 cells/well onto 96-well plates (Corning #3904) in DMEM growth medium overnight. Test compounds were serially diluted to produce an 8-point dose curve in fresh serum-free medium to a final concentration of 0.3% DMSO (vehicle) and added to the cells and incubated for 1 h. Cells were then immediately lysed with 150 μL of cold IX lysis buffer [20 mM Tris, 137 mM sodium chloride, 2 mM EDTA, 10% glycerol, l % NP-40 alternative, 1 mM activated sodium orthovanadate, 1 mM PefaBloc SC (Sigma-Aldrich #11429868001), protease/phosphatase inhibitor tablet (Thermo Fisher #A32959)]. Lysates were clarified by centrifugation and 50 μL/well added into the human phospho-Mer DuoSet IC ELISA (R&D Systems #DYC2579-2). Assay was performed according to manufacturer's instructions and sample phospho-Mer concentrations were extrapolated using human phospho-Mer control (R&D Systems #841793) as a standard. Positive control wells (100% activity) contained DMSO-treated cell lysates. Negative control wells (0% activity) contained reference inhibitor-treated cell lysates. IC50 values were calculated by nonlinear regression analysis using a 4-parameter logistic curve fit in ActivityBase XE (IDBS).

Data set [1] is described as follows: Microsomal assay, mouse liver microsome stability. The conditions noted are these: liver microsomes, pH 7.4. On the technique in general: Microsomes from liver hold many membrane-bound enzymes, among them those of drug oxidation.
Description: (§1) Liver microsomes tissue fractions were used for in vitro assessment of metabolic stability of compounds by cytochrome P450 (CYP450) (for example, CYP3A4, CYP2C9) mediated phase I oxidation, and metabolism through other pathways. Human, mouse, rat, and dog liver microsomes tissue fractions were obtained from Corning Gentest and BioreclamationIVT.
(§2) The assay was carried out in 96-well microtiter plates. Compounds were incubated (N=l) at 37° C. in the presence of liver microsomes. Reaction mixtures (25 μL) contained a final concentration of 1 μM test compound, 0.5 mg/mL liver microsomes (LM) protein, and 1 mM NADPH in 100 mM potassium phosphate, pH 7.4 buffer with 3.3 mM MgCl2. The extent of metabolism was calculated as the disappearance of the test compound, compared to the 0-min control reaction incubations. Verapamil was included as a positive control to verily assay performance.
(§3) At each of the four time points, 150 μL of quench solution (100% acetonitrile with 0.1% formic acid) with internal standard (bucetin for positive ESI mode) was transferred to each well. Plates were sealed and centrifuged at 10° C. for 15 minutes at 4000 rpm. The supernatant was transferred to fresh plates for LC/MS/MS analysis.
(§4) All samples were analyzed on LC/MS/MS using an AB Sciex API 4000 instrument, coupled to a Shimadzu LC-20AD LC Pump system. Analytical samples were separated using a Waters Atlantis T3 dC18 reverse phase HPLC column (20 mm×2.1 mm) at a flow rate of 0.5 mL/min. The mobile phase consisted of 0.1% formic acid in water (solvent A) and 0.1% formic acid in 100% acetonitrile (solvent B).
Data set [2] is described as follows: Microsomal assay, human liver microsome stability. The following applies: liver microsomes, pH 7.4.
Description: as §1, §2, §3, §4
The nature of data set [3]: Microsomal assay, rat liver microsome stability. The conditions noted are these: liver microsomes, pH 7.4.
Description: as §1, §2, §3, §4
Another data set has as its target T2, Met (Homo sapiens, UniProt P08581).
T2 construct: host or cells: PC-3 prostate cancer cells
Briefly: Met autophosphorylation ELISA in PC-3 cells. The following applies: PC-3 prostate cancer cells, HGF-stimulated, phospho-Met ELISA, 1 h compound incubation; read-out: c-Met IC50. The data set is classed as cell-based. The method, then:
Example B: Met Autophosphorylation ELISA in PC-3 Cells
PC-3 prostate cancer cells (ATCC #CRL-1435) were seeded at 4×10^4 cells/well onto 24-well plates (Greiner #662165), in DMEM (Thermo Fisher #11995-040) containing 10% FBS (Thermo Fisher #26140-079), 1% MEM NEAA (Thermo Fisher #11140-050), 1% GlutaMax (Thermo Fisher #35050-061), and 1% Penicillin Streptomycin (Thermo Fisher #15140-122). PC-3 cells were incubated at 37° C., 5% CO2 for 24 h and then starved for 3 h in serum-free medium. Test compounds were serially diluted to produce an 8-point dose curve in fresh serum-free medium to a final concentration of 0.3% DMSO (vehicle) and added to the cells and incubated for 1 h. Cells were then stimulated with 100 ng/mL recombinant human HGF (R&D Systems #294-HG-250) for 10 min, washed with cold PBS, and immediately lysed with 130 μL of cold IX lysis buffer [20 mM Tris, 137 mM sodium chloride, 2 mM EDTA, 10% glycerol, 1% NP-40 alternative, 1 mM activated sodium orthovanadate, 1 mM PefaBloc SC (Sigma-Aldrich #11429868001), protease/phosphatase inhibitor tablet (Thermo Fisher #A32959)]. Lysates were clarified by centrifugation and 100 μL/well added into the PathScan phospho-Met (panTyr) Sandwich ELISA (Cell Signaling Technology #7333). Assay was performed according to manufacturer's instructions. Positive control wells (100% activity) contained HGF-stimulated, DMSO-treated cell lysates. Negative control wells (0% activity) contained HGF-stimulated, reference inhibitor-treated cell lysates. IC50 values were calculated by nonlinear regression analysis using a 4-parameter logistic curve fit in ActivityBase XE (IDBS).

T2 sequence (P08581 25-1390): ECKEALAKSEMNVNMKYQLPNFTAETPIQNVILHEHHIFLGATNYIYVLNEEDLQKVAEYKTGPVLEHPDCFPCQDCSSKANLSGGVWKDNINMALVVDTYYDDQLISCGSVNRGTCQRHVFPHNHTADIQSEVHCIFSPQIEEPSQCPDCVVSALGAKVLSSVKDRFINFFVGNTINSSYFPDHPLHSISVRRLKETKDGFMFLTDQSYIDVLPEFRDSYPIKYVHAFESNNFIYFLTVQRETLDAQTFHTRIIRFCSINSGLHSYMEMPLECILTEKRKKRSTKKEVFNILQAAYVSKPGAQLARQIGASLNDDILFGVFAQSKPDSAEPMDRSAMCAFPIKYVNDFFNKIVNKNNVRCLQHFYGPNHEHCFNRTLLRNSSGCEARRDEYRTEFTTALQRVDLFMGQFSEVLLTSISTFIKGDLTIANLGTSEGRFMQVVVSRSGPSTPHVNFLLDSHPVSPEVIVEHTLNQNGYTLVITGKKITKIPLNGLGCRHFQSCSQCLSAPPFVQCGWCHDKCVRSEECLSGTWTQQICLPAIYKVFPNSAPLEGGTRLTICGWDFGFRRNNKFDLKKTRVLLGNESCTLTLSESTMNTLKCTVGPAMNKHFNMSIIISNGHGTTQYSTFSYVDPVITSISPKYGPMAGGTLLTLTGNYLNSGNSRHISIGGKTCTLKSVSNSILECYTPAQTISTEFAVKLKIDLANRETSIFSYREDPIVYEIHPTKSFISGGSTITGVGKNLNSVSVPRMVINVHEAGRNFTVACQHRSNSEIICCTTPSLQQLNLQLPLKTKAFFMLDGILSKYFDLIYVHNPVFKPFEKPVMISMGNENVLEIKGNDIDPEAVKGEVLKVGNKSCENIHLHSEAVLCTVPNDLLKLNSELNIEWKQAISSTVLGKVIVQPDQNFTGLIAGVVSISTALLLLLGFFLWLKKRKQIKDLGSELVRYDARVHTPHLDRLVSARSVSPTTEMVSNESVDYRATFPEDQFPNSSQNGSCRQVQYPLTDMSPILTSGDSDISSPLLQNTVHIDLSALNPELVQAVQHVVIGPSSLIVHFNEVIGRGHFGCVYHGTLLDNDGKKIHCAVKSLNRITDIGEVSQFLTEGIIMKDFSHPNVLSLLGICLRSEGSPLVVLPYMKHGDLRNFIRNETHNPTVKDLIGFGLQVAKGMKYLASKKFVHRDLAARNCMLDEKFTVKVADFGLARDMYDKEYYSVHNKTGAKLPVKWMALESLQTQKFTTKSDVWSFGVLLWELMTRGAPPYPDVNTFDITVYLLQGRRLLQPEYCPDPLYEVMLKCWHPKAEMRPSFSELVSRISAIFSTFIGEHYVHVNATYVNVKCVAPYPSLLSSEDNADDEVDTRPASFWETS

For the molecule `COc1cc2nccc(Oc3ccc(NC(=O)C4(C(=O)N(C)c5ccc(F)cc5)CC4)cc3)c2cc1OC` [Compound 9, 1-N-[4-(6,7-Dimethoxyquinolin-4-yl)oxyphenyl]-1-N′-(4-fluorophenyl)-1-N′-methylcyclopropane-1,1-dicarboxamide], the IC50 against Mer and on Met was above 300 nM each time. Also, the half-life at 1 μM in data set [1] turned out to be 3.1 min; in data set [2] it was 1.4 min; in data set [3], 1.4 min.

`COc1cc2nccc(Oc3ccc(NC(=O)C4(C(=O)N(C)c5ccc(F)cc5)CC4)cc3F)c2cc1OC` [Compound 10, N-(4-((6,7-Dimethoxyquinolin-4-yl)oxy)-3-fluorophenyl)-N-(4-fluorophenyl)-N-methylcyclopropane-1,1-dicarboxamide]: the IC50 against Mer and at Met was above 300 nM each time. In addition, the half-life at 1 μM in data set [1] was found to be 4.1 min; in data set [2], 1.3 min; in data set [3] it was 1.3 min.

As for `CNC(=O)c1cc2c(Oc3ncc(NC(=O)C4(C(=O)N(C)c5ccc(F)cc5)CC4)cc3F)ccnc2cc1OC` [Compound 34, 1-N-[5-Fluoro-6-[7-methoxy-6-(methylcarbamoyl)quinolin-4-yl]oxypyridin-3-yl]-1-N′-(4-fluorophenyl)-1-N′-methylcyclopropane-1,1-dicarboxamide], the IC50 against Mer and on Met was above 300 nM in each case. Also, the half-life at 1 μM in data set [1] worked out at 2.6 min; in data set [2], 1.3 min; in data set [3] it was 1.3 min.

`COc1cc2nccc(Oc3ncc(NC(=O)C4(C(=O)N(C)c5ccc(F)cc5)CC4)cc3F)c2cc1C(N)=O` [Compound 35, 1-N-[6-(6-Carbamoyl-7-methoxyquinolin-4-yl)oxy-5-fluoropyridin-3-yl]-1-N′-(4-fluorophenyl)-1-N′-methylcyclopropane-1,1-dicarboxamide]: the IC50 against Mer and on Met was above 300 nM throughout. In addition, the results for the half-life at 1 μM in data set [1], in data set [2] and in data set [3] were 1.9 min, 1.3 min and 1.2 min, respectively.

Regarding `COc1cc2nccc(Oc3ccc(N(C)C(=O)C4(C(=O)Nc5ccc(F)cc5)CC4)cc3F)c2cc1OC` [Compound 51, 1-N′-[4-(6,7-Dimethoxyquinolin-4-yl)oxy-3-fluorophenyl]-1-N-(4-fluorophenyl)-1-N′-methylcyclopropane-1,1-dicarboxamide], the IC50 on Mer and on Met was above 300 nM in each case. For the same molecule, the half-life at 1 μM was 9.6 min in data set [1], 29.7 min in data set [2] and 14.3 min in data set [3].
